Measurements from US20130281398A1, “TREATMENT OF DISEASES BY EPIGENETIC REGULATION” (RVX Therapeutics Inc., priority 2012, published 2013).

Biological target: T1, Brd4 bromodomain 1 (Homo sapiens, UniProt O60885)
T1 construct: Illustrative results with the first bromodomain of Brd4; made in house; host or cells: E. coli BL21(DE3)
Assay: TR-FRET inhibition of tetra-acetylated histone H4 binding to Brd4 bromodomain 1
Conditions: tetra-acetylated histone H4 peptide and Brd4 bromodomain 1, 2 hours at room temperature
Description: Proteins were cloned and overexpressed with a N-terminal 6×His tag, then purified by nickel affinity followed by size exclusion chromatography. Briefly, E. coli BL21(DE3) cells were transformed with a recombinant expression vector encoding N-terminally Nickel affinity tagged bromodomains from Brd2, Brd3, Brd4. Cell cultures were incubated at 37° C. with shaking to the appropriate density and induced overnight with IPTG. The supernatant of lysed cells was loaded onto Ni-IDA column for purification. Eluted protein was pooled, concentrated and further purified by size exclusion chromatography. Fractions representing monomeric protein are pooled, concentrated, aliquoted, and frozen at −80° C. for use in subsequent experiments.
Binding of tetra-acetylated histone H4 and BET bromodomains was confirmed by a Time Resolved Fluorescence Resonance Energy Transfer (TR-FRET) method. N-terminally His-tagged bromodomains (200 nM) and biotinylated tetra-acetylated histone H4 peptide (25-50 nM, Millipore) were incubated in the presence of Europium Cryptate-labeled streptavidin (Cisbio Cat. #610SAKLB) and XL665-labeled monoclonal anti-His antibody (Cisbio Cat. #61 HISXLB) in a white 96 well microtiter plate (Greiner). For inhibition assays, serially diluted test compound was added to these reactions in a 0.2% final concentration of DMSO. Final buffer concentrations were 30 mM HEPES pH 7.4, 30 mM NaCl, 0.3 mM CHAPS, 20 mM phosphate pH 7.0, 320 mM KF, 0.08% BSA). After 2 hours incubation at room temperature, the fluorescence by FRET was measured at 665 and 620 nm by a SynergyH4 plate reader (Biotek). The binding inhibitory activity was shown by a decrease in 665 nm fluorescence relative to 620 nm. IC50 values were determined from a dose response curve.

Q: For `COc1cc(OC)c2c(=O)[nH]c(-c3cc(C)c(OCCNS(=O)(=O)N(C)C)c(C)c3)nc2c1` [Example 44, N-(2-(4-(5,7-dimethoxy-4-oxo-3,4-dihydroquinazolin-2-yl)-2,6-dimethylphenoxy)ethyl)dimethylamino-N-sulfonamide], which “FRET activity (<50 uM)” value is on record?
A: Active

Q: How did the “FRET activity (<50 uM)” value turn out when `COc1cc(OC)c2c(=O)[nH]c(-c3cc(C)c(OCCOCc4ccccc4)c(C)c3)nc2n1` [Example 12, 2-(4-(2-(benzyloxy)ethoxy)-3,5-dimethylphenyl)-5,7-dimethoxypyrido[2,3-d]pyrimidin-4(3H)-one] was run?
A: Inactive

Q: Which “FRET activity (<50 uM)” value does the source give for `Cc1cc(-c2nc3cc(OCCN(C)C)ccc3c(=O)[nH]2)cc(C)c1O` [Example 7, 7-(2-dimethylamino-ethoxy)-2-(4-hydroxy-3,5-dimethylphenyl)-3H-quinazolin-4-one] here?
A: Active

Q: Which “FRET activity (<50 uM)” value does the source give for `COc1cc(OC)c2c(=O)[nH]c(-c3cc(C)c(OCC(O)CO)c(C)c3)nc2c1` (stereo not drawn) [Example 16, 2-[4-(2,3-Dihydroxy-propoxy)-3,5-dimethyl-phenyl]-5,7-dimethoxy-3H-quinazolin-4-one] here?
A: Active

Q: How did the “FRET activity (<50 uM)” value turn out when `COc1cc(OCCN)cc2nc(-c3cc(C)c(O)c(C)c3)[nH]c(=O)c12` [Example 3, 7-(2-amino-ethoxy)-2-(4-hydroxy-3,5-dimethyl-phenyl)-5-methoxy-3H-quinazolin-4-one] was run?
A: Active

Q: How did the “FRET activity (<50 uM)” value turn out when `COc1cc(OC)c2c(=O)[nH]c(-c3ccc(OCCO)c4ccccc34)nc2c1` [Example 18, 2-[4-(2-hydroxy-ethoxy)-naphthalen-1-yl]-5,7-dimethoxy-3H-quinazolin-4-one] was run?
A: Active

Q: `COc1cc(OC)c2c(=O)[nH]c(-c3ccc4oc(CO)cc4c3)nc2c1` [Example 19, 2-(2-hydroxymethyl-benzofuran-5-yl)-5,7-dimethoxy-3H-quinazolin-4-one] was tested. Which “FRET activity (<50 uM)” value did it give?
A: Inactive

Q: For `Cc1cc(-c2nc3ccc(Nc4ccccn4)cc3c(=O)[nH]2)cc(C)c1O` [Example 9, 2-(4-hydroxy-3,5-dimethyl-phenyl)-6-(pyridin-2-ylamino)-3H-quinazolin-4-one], which “FRET activity (<50 uM)” value is on record?
A: Inactive

Q: How did the “FRET activity (<50 uM)” value turn out when `COc1cc(OC)c2c(=O)[nH]c(-c3cc(C)c(OCCNC#N)c(C)c3)nc2c1` [Example 45, N-(2-(4-(5,7-dimethoxy-4-oxo-3,4-dihydroquinazolin-2-yl) 2,6-dimethylphenoxy)ethyl)cyanamide] was run?
A: Active

Q: Which “FRET activity (<50 uM)” value does the source give for `COc1cc(OC)c2c(=O)[nH]c(-c3cc(C)c(OCCNC=O)c(C)c3)nc2c1` [Example 42, N-(2-(4-(5,7-dimethoxy-4-oxo-3,4-dihydroquinazolin-2-yl) 2,6-dimethylphenoxy)ethyl)formamide] here?
A: Active

Q: Which “FRET activity (<50 uM)” value does the source give for `COc1cc(OC)c2c(=O)[nH]c(-c3ccc(OCCNc4nnc(-c5ccccc5)[nH]4)c(C)c3)nc2c1` [Example 29, 5,7-Dimethoxy-2-{3-methyl-4-[2-(5-phenyl-4H-[1,2,4]triazol-3-ylamino)-ethoxy]-phenyl}-3H-quinazolin-4-one] here?
A: Active

Q: How did the “FRET activity (<50 uM)” value turn out when `COc1ccc2c(=O)[nH]c(-c3cc(C)c(OCCO)c(C)c3)nc2c1` [Example 28, 2-(4-(2-hydroxyethoxy)-3,5-dimethylphenyl)-7-methoxyquinazolin-4(3H)-one] was run?
A: Inactive

Q: For `COc1cc(OC)c2c(=O)[nH]c(-c3cc(C)c(OCCNCC(F)(F)F)c(C)c3)nc2c1` [Example 34, 2-{3,5-dimethyl-4-[2-(2,2,2-trifluoro-ethylamino)-ethoxy]-phenyl}-5,7-dimethoxy-3H-quinazolin-4-one], which “FRET activity (<50 uM)” value is on record?
A: Inactive

Q: For `COc1cc(OC)c2c(=O)[nH]c(-c3cc(C)c(OCCN(C)C)c(C)c3)nc2c1` [Example 40, 2-(4-(2-(dimethylamino)ethoxy)-3,5-dimethylphenyl)-5,7-dimethoxyquinazolin-4(3H)-one], which “FRET activity (<50 uM)” value is on record?
A: Active

Q: Which “FRET activity (<50 uM)” value does the source give for `Cc1cc(-c2nc3cc(Cl)ccc3c(=O)[nH]2)cc(C)c1OCCO` [Example 26, 7-chloro-2-(4-(2-hydroxyethoxy)-3,5-dimethylphenyl)quinazolin-4(3H)-one] here?
A: Inactive

Q: For `CNCCOc1c(C)cc(-c2nc3cc(OC)cc(OC)c3c(=O)[nH]2)cc1C` [Example 36, 2-(3,5-dimethyl-4-(2-(methylamino)ethoxy)phenyl)-5,7-dimethoxyquinazolin-4(3H)-one], which “FRET activity (<50 uM)” value is on record?
A: Active

Q: Which “FRET activity (<50 uM)” value does the source give for `COc1cc(OC)c2c(=O)[nH]c(-c3ccc4cc(CCO)[nH]c4c3)nc2c1` [Example 52, 2-[2-(2-hydroxyethyl)-1H-indol-6-yl]-5,7-dimethoxy-3H-quinazolin-4-one] here?
A: Active

Q: For `Cc1cc(-c2nc3cc(F)cc(F)c3c(=O)[nH]2)cc(C)c1OCCO` [Example 14, 5,7-difluoro-2-(4-(2-hydroxyethoxy)-3,5-dimethylphenyl)quinazolin-4(3H)-one], which “FRET activity (<50 uM)” value is on record?
A: Inactive

Q: With `COc1cc(OC)c2c(=O)[nH]c(-c3cc(C)c(OCCNc4nc(OC)cc(OC)n4)c(C)c3)nc2c1` [Example 49, 2-(4-(2-(4,6-dimethoxypyrimidin-2-ylamino)ethoxy)-3,5-dimethylphenyl)-5,7-dimethoxyquinazolin-4(3H)-one] as the compound, how does the “FRET activity (<50 uM)” value read?
A: Inactive

Q: `COc1cc(OC)c2c(=O)[nH]c(-c3cc(OC)c(CCCO)c(OC)c3)nc2c1` [Example 50, 2-[4-(3-hydroxy-propyl)-3,5-dimethoxyphenyl]-5,7-dimethoxy-3H-quinazolin-4-one] was tested. Which “FRET activity (<50 uM)” value did it give?
A: Active

Q: Which “FRET activity (<50 uM)” value does the source give for `COc1cc(OC)c2c(=O)[nH]c(-c3ccc(CCCO)c(OC)c3)nc2c1` [Example 51, 2-[4-(3-hydroxy-propyl)-3-methoxy-phenyl]-5,7-dimethoxy-3H-quinazolin-4-one] here?
A: Active

Q: With `COCCOc1cc(OC)c2c(=O)[nH]c(-c3cc(C)c(O)c(C)c3)nc2c1` [Example 4, 2-(4-hydroxy-3,5-dimethyl-phenyl)-5-methoxy-7-(2-methoxy-ethoxy)-3H-quinazolin-4-one] as the compound, how does the “FRET activity (<50 uM)” value read?
A: Active

Q: For `Cc1cc(-c2nc3ccc(CNS(C)(=O)=O)cc3c(=O)[nH]2)cc(C)c1O` [Example 11, N-((2-(4-hydroxy-3,5-dimethylphenyl)-4-oxo-3,4-dihydroquinazolin-6-yl)methyl)methanesulfonamide], which “FRET activity (<50 uM)” value is on record?
A: Active

Q: `COc1cc(OC)c2c(=O)[nH]c(-c3ccc(OCCO)cc3)nc2c1` [Example 17, 2-[4-(2-hydroxy-ethoxy)-phenyl]-5,7-dimethoxy-3H-quinazolin-4-one] was tested. Which “FRET activity (<50 uM)” value did it give?
A: Active

Q: `COc1cc(OCCOCc2ccccc2)cc2nc(-c3ccc4oc(CO)cc4c3)[nH]c(=O)c12` [Example 21, 7-(2-benzyloxy-ethoxy)-2-(2-hydroxymethyl-benzofuran-5-yl)-5-methoxy-3H-quinazolin-4-one] was tested. Which “FRET activity (<50 uM)” value did it give?
A: Inactive

Q: With `COc1cc(OC)c2c(=O)[nH]c(-c3cc(C)c(OCCNC=O)c(C)c3)cc2c1` [Example 35, N-{2-[4-(6,8-dimethoxy-1-oxo-1,2-dihydro-isoquinolin-3-yl)-2,6-dimethyl-phenoxy]-ethyl}-formamide] as the compound, how does the “FRET activity (<50 uM)” value read?
A: Active

Q: With `COc1cc(OCCOCc2cccnc2)cc2nc(-c3cc(C)c(O)c(C)c3)[nH]c(=O)c12` [Example 6, 2-(4-hydroxy-3,5-dimethylphenyl)-5-methoxy-7-[2-(pyridin-3-ylmethoxy)ethoxy]-3H-quinazolin-4-one] as the compound, how does the “FRET activity (<50 uM)” value read?
A: Active
